Literature values in publication PMC5693832 (Ophthalmology and Therapy, 2017).

Legend:
platelets = conditions: humans
[1] = system: IOP over a 24-h diurnal time period; conditions: for IOP reduction over the 24 h period, in words: 24-h diurnal period
[2] = system: IOP in healthy Japanese subjects; conditions: 0.024% once daily for 14 days
[3] = system: diurnal IOP in POAG or OHT patients; conditions: 0.006% to 0.040%, 28 days
IOP = conditions: 0.024%, summary of the clinical trials
[4] = system: IOP in Japanese subjects with POAG or OHT; conditions: 0.024% every evening

Structure (SMILES) | NO release after oral administration (platelets) | IOP reduction over the 24 h period, in words [1] | most common adverse events [2] | severity of adverse events [2] | adverse events (pupil dilation, blurred vision) [3] | efficacy (change from baseline mean diurnal IOP), dose relation [3] | additional IOP reduction versus latanoprost and timolol monotherapy (IOP) | post treatment mean IOP (SD), nighttime ([1]; nighttime, baseline 25.7 (3.8) mmHg) | IOP (SD) at 52 weeks [4] | IOP reduction by 52 weeks from baseline ([4]; baseline 19.6 (2.9) mmHg) [%]
CC(=O)Oc1ccccc1C(=O)Oc1cccc(CO[N+](=O)[O-])c1 [NCX 4016, 2-(acetyloxy)benzoic acid-3-[(nitrooxy)methyl]phenyl ester] | capable of releasing NO |  |  |  |  |  |  |  |  | 
CC(C)(C)NC[C@H](O)COc1nsnc1N1CCOCC1 [timolol] |  | primarily effective during the daytime |  |  |  |  |  |  |  | 
O=C(CCC/C=C\C[C@@H]1[C@@H](CC[C@@H](O)CCc2ccccc2)[C@H](O)C[C@@H]1O)OCCCCO[N+](=O)[O-] [latanoprostene bunod] |  | sustained IOP reduction during the 24 h period | punctate keratitis and conjunctival hyperemia | mild | neither pupil dilation nor blurred vision were reported as adverse events | dose-dependent | 1–2 mmHg | 23.2 (3.4) mmHg | 14.4 (2.7) mmHg | 26
